# Reference: patent publication US20210078972A1, “QUINOLINE OR QUINAZOLINE COMPOUND AND APPLICATION THEREOF” (HAIHE BIOPHARMA CO., LTD., priority 2018, published 2021)
# Assays:
# Type in all cases: in vitro ADME
# Settings in all cases: 180 min
# [1] = system: Mixed primary male SD rat hepatocytes; test: Metabolism in rat hepatocytes, UPLC-UV/Q-TOF MS
# Method: (§1) In this example, a UPLC-UV/Q-TOF MS method was used to evaluate the differences in the metabolic processes of TL134 in hepatocytes of five species of human, monkey, canine, rat, and mouse. It provides a reference for the selection of preclinical pharmacokinetics and studies on animal species safety evaluation.
# (§2) The total volume of each incubation sample was 100 μL, the medium was WME medium (pH 7.4), and the incubation sample included hepatocytes with a cell density of 1.0×10^6 cells/mL and TL134 with a final concentration of 3.0 μM; the negative control sample was incubated with thermal-inactivated mixed hepatocytes (without cell counting) of five species of animals and TL134, and the buffer control sample was incubated with WME medium and TL134. All samples were incubated at 37° C. for 180 min, and then 100 μL of ice-cold acetonitrile was added to stop the reaction. The samples were stored at −70° C. for ready to be tested, and all incubation samples were double samples.
# (§3) Triple TOF 5600′ quadrupole-time-of-flight tandem mass spectrometer (Q-TOF MS), equipped with electrospray ionization source (ESI source) and CDS automatic calibration system, AB SCIEX Company, USA; Acquity UPLC liquid chromatography system, including binary infusion pump, autosampler, column oven, degasser and TUV ultraviolet detector, Waters Company, USA. […]
# [2] = system: Mixed primary male CD-1 mouse hepatocytes; test: Metabolism in mouse hepatocytes, UPLC-UV/Q-TOF MS
# Method: as §1, §2, §3
# [3] = system: Mixed primary human hepatocytes; test: Metabolism in human hepatocytes, UPLC-UV/Q-TOF MS
# Method: as §1, §2, §3
smiles,measurement,setting,value
"COc1cc2c(Oc3ccc(NC(=O)c4c(C)n(C)c5ccc(OC(F)(F)F)cc5c4=O)cc3F)ncnc2cc1OCCCN1CCOCC1 [TL-134, N-(3-fluoro-4-((6-methoxy-7-(3-morpholinopropoxy)quinazolin-4-yl)oxy)phenyl)-1,2-dim ethyl-4-oxo-6-(trifluoromethoxy)-1,4-dihydroquinoline-3-carboxamide]","prototype drug metabolized, judging from the UV chromatographic peak areas",[1],~19.8%
same,"prototype drug metabolized, judging from the UV chromatographic peak areas",[2],~3.0%
same,"prototype drug metabolized, judging from the UV chromatographic peak areas",[3],approximately 17.8%
